ChEMBL document CHEMBL1201862, “PubChem BioAssay data set” (2004)
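Results reflect a 48-hour exposure of cells in 96-well plates to compound at five concentrations. At the GI50, growth is halved.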 The source made the active and inactive calls. Cut-off read from the data, not from the text of the source: active = GI50 up to about 1.1 µM and inactive = higher.

Tests used:
Test in all cases: DTP human tumour cell line panel, 48 h
[1] = test system: 786-0
[2] = test system: A498
[3] = test system: CAKI-1
[4] = test system: HOP-62
[5] = test system: M14
[6] = test system: MDA-MB-231
[7] = test system: NCI-H23
[8] = test system: NCI/ADR-RES
[9] = test system: OVCAR-3
[10] = test system: OVCAR-8
[11] = test system: RPMI-8226
[12] = test system: SF-539
[13] = test system: SK-MEL-5
[14] = test system: SNB-19
[15] = test system: SNB-75
[16] = test system: T47D
[17] = test system: TK-10
[18] = test system: UACC-62
[19] = test system: NCI-H522

Measured: GI50

Cc1cc(NS(=O)(=O)c2ccc(NC(NC(=O)OC(C)C)(C(F)(F)F)C(F)(F)F)cc2)nc(C)n1
inactive: [1] > 100 µM | [2] > 100 µM | [3] > 100 µM | [4] > 100 µM | [5] > 100 µM | [6] > 100 µM | [7] > 100 µM | [8] > 100 µM | [9] > 100 µM | [10] > 100 µM | [11] > 100 µM | [12] > 100 µM | [13] > 100 µM | [14] > 100 µM | [15] > 100 µM | [16] 60.7 µM | [17] > 100 µM | [18] > 100 µM

O=[N+]([O-])c1ccc(/C=N/Nc2nc3ccccc3[nH]2)o1
inactive: [1] 24.9 µM | [3] 15.1 µM | [4] 15.8 µM | [5] 12.7 µM | [6] 32.4 µM | [7] 16.2 µM | [19] 13.3 µM | [8] 24.6 µM | [9] 11.1 µM | [10] 16.7 µM | [11] 2.85 µM | [12] 4.09 µM | [13] 4.14 µM | [14] 26.5 µM | [15] 17.7 µM | [16] 13.6 µM | [17] 19.2 µM

COCc1nc(C#N)c(N)o1
inactive: [1] > 10 µM | [3] > 10 µM | [4] > 10 µM | [5] > 10 µM | [6] > 10 µM | [7] > 10 µM | [19] > 10 µM | [8] > 10 µM | [10] > 10 µM | [11] > 10 µM | [12] > 10 µM | [13] > 10 µM | [14] > 10 µM | [15] > 10 µM | [16] > 10 µM | [17] > 10 µM | [18] > 10 µM

CC(=O)OCC1CCC(=C2C(=O)OC(C)(C)OC2=O)N1 (stereo not drawn)
inactive: [1] > 100 µM | [3] > 100 µM | [4] > 100 µM | [5] > 100 µM | [6] > 100 µM | [7] > 100 µM | [19] > 100 µM | [8] > 100 µM | [9] > 100 µM | [10] > 100 µM | [11] > 100 µM | [12] > 100 µM | [13] > 100 µM | [14] > 100 µM | [15] > 100 µM | [16] > 100 µM | [17] > 100 µM | [18] > 100 µM

N=C(N)NS(=O)(=O)c1ccc(NNC(=O)c2cccc3c(O)c4ccccc4nc23)cc1
inactive: [1] 38.4 µM | [3] 34.6 µM | [4] 22 µM | [5] 17.4 µM | [6] 37.6 µM | [7] 31.2 µM | [19] 21.6 µM | [8] 38.3 µM | [9] 24.1 µM | [10] 26.1 µM | [11] 37.2 µM | [12] 26.5 µM | [13] 17.1 µM | [14] 48.6 µM | [15] 30.7 µM | [16] 17.7 µM | [17] 44.8 µM | [18] 30.3 µM

Cc1nn(C(=O)c2ccncc2)c2c1C(c1ccc([N+](=O)[O-])cc1)SC(=N)N2 (stereo not drawn)
inactive: [1] > 100 µM | [2] > 100 µM | [4] > 100 µM | [5] > 100 µM | [6] > 100 µM | [7] > 100 µM | [8] > 100 µM | [9] > 100 µM | [10] > 100 µM | [11] > 100 µM | [12] > 100 µM | [13] > 100 µM | [14] > 100 µM | [15] > 100 µM | [16] > 100 µM | [17] > 100 µM | [18] > 100 µM

O=C1NC(=S)NC(=O)C1C(c1ccc([N+](=O)[O-])cc1)C1C(=O)NC(=S)NC1=O.c1ccncc1
inactive: [1] > 100 µM | [2] > 100 µM | [3] > 100 µM | [4] > 100 µM | [5] > 100 µM | [6] > 100 µM | [7] > 100 µM | [19] > 100 µM | [8] > 100 µM | [9] > 100 µM | [10] > 100 µM | [11] > 100 µM | [13] > 100 µM | [14] > 100 µM | [16] > 100 µM | [17] > 100 µM | [18] > 100 µM

CCOC(=O)c1ccc(/N=N/N(C)C(=O)C(C)N)cc1 (stereo not drawn)
inactive: [1] > 100 µM | [3] 92.5 µM | [4] > 100 µM | [5] > 100 µM | [6] > 100 µM | [7] > 100 µM | [19] 86.5 µM | [8] > 100 µM | [9] > 100 µM | [10] > 100 µM | [11] > 100 µM | [12] > 100 µM | [13] > 100 µM | [14] > 100 µM | [15] 55.8 µM | [16] > 100 µM | [17] > 100 µM | [18] > 100 µM

Nc1nonc1-c1noc(-c2nonc2N)[n+]1[O-]
inactive: [1] 37.1 µM | [2] > 100 µM | [3] 18.4 µM | [4] > 100 µM | [5] 29.6 µM | [6] > 100 µM | [7] 77.4 µM | [19] 13.1 µM | [8] 69.2 µM | [11] 54.6 µM | [13] 32.1 µM | [14] > 100 µM | [16] > 10 µM | [17] 43 µM | [18] 66.7 µM

CCOC1CC(C)N(C(=O)c2ccccc2)O1 (stereo not drawn)
inactive: [1] > 100 µM | [2] > 100 µM | [4] > 100 µM | [5] > 100 µM | [6] > 100 µM | [7] > 100 µM | [8] > 100 µM | [9] > 100 µM | [10] > 100 µM | [12] > 100 µM | [13] > 100 µM | [14] > 100 µM | [16] > 100 µM | [17] > 100 µM | [18] > 100 µM

CC(C)(C)[Si](C)(C)OCC1CCC(n2cnc3c(=O)[nH]cnc32)O1 (stereo not drawn)
inactive: [1] > 100 µM | [3] > 100 µM | [4] > 100 µM | [5] > 100 µM | [6] > 100 µM | [7] > 100 µM | [19] > 100 µM | [8] 45.6 µM | [9] > 100 µM | [10] 94.4 µM | [11] 65.5 µM | [12] > 100 µM | [13] 32.5 µM | [14] > 100 µM | [15] 20.3 µM | [16] 82.8 µM | [17] > 100 µM | [18] 35.7 µM
